{"source": "patent US20240217930A1", "about": "(priority 2021, published 2024)", "origin": "cited, not measured here", "key": {"[1]": {"details": "trials performed in cats; cited from earlier work"}, "[2]": {"test_system": "ten further coronavirus strains", "details": "read-out: Ki against ten further coronavirus strains; cited from earlier work"}, "[3]": {"test_system": "live virus", "details": "cited from earlier work"}}}
{"molecule": "CC(C)C[C@H](NC(=O)OCc1ccccc1)C(=O)N[C@@H](C[C@@H]1CCNC1=O)C(O)S(=O)(=O)[O-].[Na+]", "note": "(stereo partly drawn) [GC376]", "values": [{"measurement": "side effects in cats", "setting": "[1]", "result": "has shown side effects"}]}
{"molecule": "PF-00835231", "values": [{"measurement": "Ki", "setting": "[2]", "result": "0.03 to 4", "unit": "nM"}, {"measurement": "activity in cell-based live virus assays", "setting": "[3]", "result": "~1", "unit": "µM"}]}
